Biological target: T1, Muscarinic acetylcholine receptor M1 (Homo sapiens, UniProt P11229)
T1 sequence (P11229 whole entry): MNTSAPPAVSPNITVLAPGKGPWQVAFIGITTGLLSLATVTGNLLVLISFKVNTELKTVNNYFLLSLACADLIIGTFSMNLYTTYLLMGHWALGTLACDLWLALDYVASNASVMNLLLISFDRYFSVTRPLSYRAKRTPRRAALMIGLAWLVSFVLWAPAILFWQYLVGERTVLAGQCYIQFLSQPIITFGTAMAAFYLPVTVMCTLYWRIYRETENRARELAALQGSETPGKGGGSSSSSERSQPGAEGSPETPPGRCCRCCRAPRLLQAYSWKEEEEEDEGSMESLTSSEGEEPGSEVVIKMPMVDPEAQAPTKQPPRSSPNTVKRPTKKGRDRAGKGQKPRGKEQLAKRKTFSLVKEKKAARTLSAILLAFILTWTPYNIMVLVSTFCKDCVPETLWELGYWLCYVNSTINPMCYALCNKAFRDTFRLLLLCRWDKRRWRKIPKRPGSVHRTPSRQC
Assay: Antagonist activity at human recombinant muscarinic receptor M1 expressed in CHO-K1 cells assessed as EC80 acetylcholine-induced calcium flux incubated for 30 mins

| SMILES | IC50 [µM] |
| --- | --- |
| N#Cc1ccc(N2C3CCC2CN(C(=O)CCS(=O)(=O)c2cccc4ncsc24)C3)nc1 | 0.0016 |
| N#Cc1ccc(N2CC3CCC2CN3C(=O)CCS(=O)(=O)c2cccc3ncsc23)nc1 (stereo not given) | 0.032 |
| Cc1cc(F)cnc1N1CCN(C(=O)CCS(=O)(=O)c2cccc3ncsc23)[C@@H](C)C1 | 0.0794 |
| Cc1cc(F)cnc1N1CCN(C(=O)COCc2cccc3ncsc23)[C@@H](C)C1 | 3.98 |
| N#Cc1cnccc1N1CCN(C(=O)CCCc2cccc3ncccc23)CC1 | 1.25 |
